Measurements from patent US5952204A, “β-fructofuranosidase, its preparation and uses” (priority 1995, dated 1999).

These compounds were tested on β-fructofuranosidase (assay: Inhibition of the enzyme activity by metal ions). Settings: one mM metal ion.
Assay type: biochemical, Bacillus sp. V230 (FERM BP-5054)
Procedure: The activity of β-fructofuranosidase according to the present invention is assayed as follows: Add 0.2 ml of an enzyme solution to 5 ml of an aqueous solution (pH 6.0) consisting of 1.0 w/v % sucrose, 20 mM acetate buffer, and 5 mM calcium chloride. Incubate the mixture at 40° C. for 10 min, add the Somogyi copper solution to suspend the reaction, and assay the reducing power by the Somogyi-Nelson's method. As a control, provide an enzyme solution pre-heated to inactivate the enzyme at 100° C. for 10 min, and assay the reducing power similarly as above. One unit activity of the enzyme is defined as the amount of enzyme that increases the reducing power of 2 μmol glucose per minute when assayed on the above assay.
In accordance with the method used in the above assay for the enzyme activity, the influence of pH and temperature on the present β-fructofuranosidase activity was studied in the presence of or in the absence of 5 mM calcium chloride. […] The optimum pH of the enzyme was about 5.5-6.0 when incubated at 40° C. for 10 min both in the presence of and in the absence of calcium ion, while the optimum temperature of the enzyme was about 50° C. in the presence of calcium ion and about 45° C. in the absence of calcium ion when incubated at pH 6.0 for 10 min. The pH stability of the present enzyme was determined by incubating in 50 mM buffers with different pHs at 4° C. for 24 hours, and assaying the residual enzyme activity after adjusting the buffers to pH 6. The thermal stability of the enzyme was determined by incubating in 20 mM acetate buffers (pH 6.0) at different temperatures for an hour, and assaying the residual enzyme activity in each buffer after cooling the buffers. The results of pH and thermal stabilities of the present enzyme were respectively in FIGS. 3 and 4. The pH stability of the enzyme was about 5.0-8.0, and the thermal stability was about 45° C. […] One mM Cu^++, Pb^++, Fe^++, Fe^+++ or Hg^++ inhibited the enzyme activity.
For [Pb+2] [Pb^++], the “Inhibition of the enzyme activity” value was “inhibited”. In the case of [Fe+3] [Fe^+++], the “Inhibition of the enzyme activity” value is reported as “inhibited”. For [Hg+2] [Hg^++], the “Inhibition of the enzyme activity” value was “inhibited”. With [Cu+2] [Cu^++] the “Inhibition of the enzyme activity” value was “inhibited”. With [Fe+2] [Fe^++] the “Inhibition of the enzyme activity” value was “inhibited”.

These compounds were tested on β-fructofuranosidase (assay: Substrate specificity (TLC)). Settings: 2 w/v % substrate, 2 units/g substrate, 40° C., pH 5.5, 24 hours.
Assay type: biochemical, Bacillus sp. V230 (FERM BP-5054)
Procedure: A solution with a final concentration of 2 w/v % raffinose, erlose, stachyose, lactose, xylofructoside, maltose, cellobiose, lactose, inulin or laevan as a substrate was mixed with 2 units/g substrate of a β-fructofuranosidase obtained by the method in Experiment 2, and allowed to react enzymatically at 40° C. and pH 5.5 for 24 hours. The reaction mixture was subjected to thin layer chromatography (hereinafter abbreviated as "TLC") using "KIESEL GEL 60", an aluminum plate, 20×20 cm, commercialized by Merck & Co., Inc., NJ, USA, to confirm whether the enzyme acts on these saccharides. The solvent system used in the TLC consisted of 1-butanol, pyridine, and water (=7:3:1 by volume), and samples were developed once at ambient temperature. The saccharides comprising fructose units as constituent saccharides were colored by spraying a 0.5-N phosphoric acid solution containing 0.2 w/v % naphthoresorcinol and heating at 110° C. for about 5 min, while other saccharides were colored by spraying a methanol solution containing 20 w/v % sulfuric acid and heating at 110° C. for about 10 min.
OC[C@H]1O[C@@](CO)(O[C@H]2O[C@H](CO)[C@@H](O)[C@H](O)[C@H]2O)[C@@H](O)[C@@H]1O [sucrose] was tested, and the “Action of the enzyme on the substrate (release of fructose)” value (shortened to “Action of the enzyme on the substrate”) was “acts on”. OC[C@H]1O[C@@H](O[C@H]2[C@H](O)[C@@H](O)C(O)O[C@@H]2CO)[C@H](O)[C@@H](O)[C@@H]1O (some centres unmarked) [Cellobiose] was tested, and the “Action of the enzyme on the substrate” value was “does not act on”. For laevan, the “Action of the enzyme on the substrate” value was “does not act on”. OC[C@H]1O[C@H](OC[C@H]2O[C@H](OC[C@H]3O[C@H](O[C@]4(CO)O[C@H](CO)[C@@H](O)[C@@H]4O)[C@H](O)[C@@H](O)[C@@H]3O)[C@H](O)[C@@H](O)[C@H]2O)[C@H](O)[C@@H](O)[C@H]1O [stachyose] was tested, and the “Action of the enzyme on the substrate” value was “acts on”. With inulin the “Action of the enzyme on the substrate” value was “does not act on”. With OC[C@H]1O[C@H](O[C@H]2[C@H](O)[C@@H](O)[C@H](O)O[C@@H]2CO)[C@H](O)[C@@H](O)[C@@H]1O [Maltose] the “Action of the enzyme on the substrate” value was “does not act on”. OC[C@H]1O[C@@H](O[C@H]2[C@H](O)[C@@H](O)C(O)O[C@@H]2CO)[C@H](O)[C@@H](O)[C@H]1O (some centres unmarked) [Lactose] was tested, and the “Action of the enzyme on the substrate” value was “does not act on”. In the case of OC[C@H]1O[C@H](OC[C@H]2O[C@H](O[C@]3(CO)O[C@H](CO)[C@@H](O)[C@@H]3O)[C@H](O)[C@@H](O)[C@@H]2O)[C@H](O)[C@@H](O)[C@H]1O [Raffinose], the “Action of the enzyme on the substrate” value is reported as “acts on”. For OC[C@H]1O[C@@H](O[C@H]2[C@H](O)[C@@H](O)[C@@H](O[C@]3(CO)O[C@H](CO)[C@@H](O)[C@@H]3O)O[C@@H]2CO)[C@H](O)[C@@H](O)[C@H]1O [lactosucrose], the “Action of the enzyme on the substrate” value was “acts on”. For OC[C@H]1O[C@@](CO)(O[C@H]2O[C@H](CO)[C@@H](O[C@H]3O[C@H](CO)[C@@H](O)[C@H](O)[C@H]3O)[C@H](O)[C@H]2O)[C@@H](O)[C@@H]1O [erlose], the “Action of the enzyme on the substrate” value was “acts on”. With OC[C@H]1O[C@@](CO)(O[C@H]2OC[C@@H](O)[C@H](O)[C@H]2O)[C@@H](O)[C@@H]1O [xylofructoside] the “Action of the enzyme on the substrate” value was “acts on”.

What follows are compounds tested on β-fructofuranosidase (assay: Acceptor specificity (TLC, sucrose as donor)). Settings: summary of Table 1.
Assay type: biochemical, Bacillus sp. V230 (FERM BP-5054)
Procedure: A saccharide solution with a final concentration of 10%, which consists of one of the monosaccharides, oligosaccharides, and alcohols in Table 1, and an equal amount of sucrose as a donor, d.s.b., was mixed with 2 units/g sucrose of a purified β-fructofuranosidase obtained by the method in Experiment 2, and allowed to react enzymatically at 40° C. and pH 5.5 for 24 hours. The mixtures before the enzymatic reaction and the reaction mixtures after the enzymatic reaction were subjected to TLC similarly as in Experiment 4, and the saccharides were colored by spraying 0.5-N phosphoric acid containing 0.2 w/v % naphthoresorcinol and heating at 110° C. for about 5 min to check the formation of transferred saccharides.
With OC[C@H]1O[C@@H](O[C@H]2[C@H](O)[C@@H](O)C(O)O[C@@H]2CO)[C@H](O)[C@@H](O)[C@@H]1O (some centres unmarked) [Cellobiose] the “Transfer of fructosyl residue to the acceptor (in words)” value (shortened to “Transfer of fructosyl residue”) was “effectively transfers”. In the case of OC[C@@H](O)[C@@H](O[C@H]1O[C@H](CO)[C@@H](O)[C@H](O)[C@H]1O)[C@H](O)[C@@H](O)CO [Maltitol], the “Transfer of fructosyl residue” value is reported as “effectively transfers”. In the case of OC[C@@H](O)[C@@H](O)[C@H](O)[C@@H](O)CO [D-Sorbitol], the “Transfer of fructosyl residue” value is reported as “effectively transfers”. OCCO [Ethylene glycol] was tested, and the “Transfer of fructosyl residue” value was “effectively transfers”. In the case of O=C[C@H](O)[C@@H](O)[C@@H](O)[C@H](O)CO [D-Galactose], the “Transfer of fructosyl residue” value is reported as “effectively transfers”. With OC[C@H]1O[C@H](O[C@H]2[C@H](O)[C@@H](O)[C@H](O)O[C@@H]2CO)[C@H](O)[C@@H](O)[C@@H]1O [Maltose] the “Transfer of fructosyl residue” value was “effectively transfers”. With OC[C@H]1O[C@H](OC[C@H]2OC(O)[C@H](O)[C@@H](O)[C@@H]2O)[C@H](O)[C@@H](O)[C@H]1O (some centres unmarked) [Melibiose] the “Transfer of fructosyl residue” value was “effectively transfers”. O=C[C@H](O)[C@@H](O)[C@H](O)CO [D-Xylose] was tested, and the “Transfer of fructosyl residue” value was “effectively transfers”. For OCC(O)CO [Glycerol], the “Transfer of fructosyl residue” value was “effectively transfers”. For OC[C@H]1O[C@H](OC[C@H]2O[C@H](O[C@H]3[C@H](O)[C@@H](O)C(O)O[C@@H]3CO)[C@H](O)[C@@H](O)[C@@H]2O)[C@H](O)[C@@H](O)[C@@H]1O (some centres unmarked) [Panose], the “Transfer of fructosyl residue” value was “effectively transfers”. With OC[C@H]1O[C@@H](O[C@H]2[C@H](O)[C@@H](O)C(O)O[C@@H]2CO)[C@H](O)[C@@H](O)[C@H]1O (some centres unmarked) [Lactose] the “Transfer of fructosyl residue” value was “effectively transfers”. For OC[C@H]1O[C@H](OC[C@H]2OC(O)[C@H](O)[C@@H](O)[C@@H]2O)[C@H](O)[C@@H](O)[C@@H]1O (some centres unmarked) [Isomaltose], the “Transfer of fructosyl residue” value was “effectively transfers”. With OC[C@H]1O[C@H](O[C@H]2[C@H](O)[C@@H](O)[C@@H](O[C@H]3[C@H](O)[C@@H](O)C(O)O[C@@H]3CO)O[C@@H]2CO)[C@H](O)[C@@H](O)[C@@H]1O (some centres unmarked) [Maltotriose] the “Transfer of fructosyl residue” value was “effectively transfers”. OC[C@H]1O[C@H](O[C@H]2O[C@H](CO)[C@@H](O)[C@H](O)[C@H]2O)[C@H](O)[C@@H](O)[C@@H]1O [Trehalose] was tested, and the “Transfer of fructosyl residue” value was “effectively transfers”. In the case of OC[C@@H](O)[C@H](O)[C@@H](O)CO [D-Xylitol], the “Transfer of fructosyl residue” value is reported as “effectively transfers”.

Each compound was assayed on dd-strain mice (assay: Acute toxicity test, oral). Settings: 7-week-old dd-strain mice.
Assay type: in vivo
Procedure: Using 7-week-old dd-strain mice, a powder rich in lactosucrose, obtained by the method in Example A-4 described later, was administered orally to the mice for acute toxicity test. No mouse died up to a dose of 15 g/kg mouse, and a higher dose test was impossible. […] Similarly as above, a powder rich in erlose obtained by the method in Example A-6 described later, a syrup rich in xylosylfructoside obtained by the method in Example A-8 described later, a syrup rich in fructosyltrehalose obtained by the method in Example A-11, or a syrup rich in isomaltosylfructoside obtained by the method in Example A-12 described later was orally administered to 7-week-old dd-strain mice for acute toxicity test. No mouse died up to a dose of 15 g/kg mouse, and a higher does test was impossible.
With OC[C@H]1O[C@@H](O[C@H]2[C@H](O)[C@@H](O)[C@@H](O[C@]3(CO)O[C@H](CO)[C@@H](O)[C@@H]3O)O[C@@H]2CO)[C@H](O)[C@@H](O)[C@H]1O [lactosucrose] the “Toxicity (in words)” value was “relatively low in toxicity”.
